From US9266857B2, “Bicyclic AZA compounds as muscarinic M1 receptor agonists” (Heptares Therapeutics Limited, priority 2012, dated 2016) come the findings set out here.

Each structure is given as a SMILES string. Read-outs that look alike come from different tables or passages of the source. Bounds are passed on as bounds.

Experiment [1] addresses T1, human muscarinic M4 receptor (Homo sapiens, UniProt P08173).
T1 construct: expressed in transfected cells
T1 sequence (P08173 1-479): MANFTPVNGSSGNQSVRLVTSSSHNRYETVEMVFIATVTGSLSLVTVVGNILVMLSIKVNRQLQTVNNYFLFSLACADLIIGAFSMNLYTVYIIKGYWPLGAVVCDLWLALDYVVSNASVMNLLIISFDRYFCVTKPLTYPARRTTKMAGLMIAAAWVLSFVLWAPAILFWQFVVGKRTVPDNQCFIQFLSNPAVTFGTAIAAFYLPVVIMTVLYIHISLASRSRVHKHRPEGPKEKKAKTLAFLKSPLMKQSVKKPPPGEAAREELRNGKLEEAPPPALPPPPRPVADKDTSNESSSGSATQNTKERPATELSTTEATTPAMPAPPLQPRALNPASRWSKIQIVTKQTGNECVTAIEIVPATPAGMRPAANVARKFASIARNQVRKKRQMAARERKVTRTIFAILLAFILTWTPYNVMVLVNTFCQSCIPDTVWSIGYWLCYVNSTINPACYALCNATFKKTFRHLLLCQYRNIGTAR
In words: Alphascreen Surefire phospho-ERK1/2 functional assay, M4. The format is cell-based. The conditions noted are these: for EC50: CHO cells stably expressing human M4, phospho-ERK1/2, read-out: pEC50 M4 (converted); for Emax: CHO. Here is the method: (§1) ERK1/2 phosphorylation is a downstream consequence of both Gq/11 and Gi/o protein coupled receptor activation, making it highly suitable for the assessment of M1, M3 (Gq/11 coupled) and M2, M4 receptors (Gi/o coupled), rather than using different assay formats for different receptor subtypes. CHO cells stably expressing the human muscarinic M1, M2, M3 or M4 receptor were plated (25K/well) onto 96-well tissue culture plates in MEM-alpha+10% dialysed FBS. Once adhered, cells were serum-starved overnight. Agonist stimulation was performed by the addition of 5 μL agonist to the cells for 5 min (37° C.). Media was removed and 50 μL of lysis buffer added. After 15 min, a 4 μL sample was transferred to 384-well plate and 7 μL of detection mixture added. Plates were incubated for 2 h with gentle agitation in the dark and then read on a PHERAstar plate reader.
(§2) pEC50 and Emax figures were calculated from the resulting data for each receptor subtype.

For experiment [2], the system named is fEPSPs in the CA1 region of rat hippocampal slices. As to the kind of experiment: CA1 cell firing, fEPSPs in hippocampal slices. The experiment is classed as cell-based. As to conditions: CA1 fEPSP amplitude, 6 slices averaged. As for the experimental part:
Rat hippocampal slices of 400 μm thickness were cut in chilled (<4° C.) artificial cerebrospinal fluid (aCSF, composition in mM: NaCl 127, KCl 1.6, KH2PO4 1.24, MgSO4 1.3, CaCl2 2.4, NaHCO3 26 and D-glucose 10) using vibratome. Slices were maintained in oxygenated (95% O2/5% CO2) aCSF at room temperature for at least 1 hr prior to electrophysiological recording, after which they were transferred to an interface chamber and constantly perfused with warmed (30° C.) oxygenated aCSF at a flow rate of 1.5-3 ml.min-1. Schaffer collaterals were then stimulated (1-20 V, 0.1 ms pulse width, 0.033 Hz) with a concentric bipolar electrode to evoke field excitatory post synaptic potentials (fEPSPs) recorded from the stratum radiatum of the CA1 region. Experiments were performed to examine the effect of compound compared to 1 μM carbachol (CCh), on the amplitude of fEPSPs in the CA1 region of rat hippocampal slices. 1 μM CCh was initially applied until steady-state, followed by wash, before performing a five point cumulative concentration-response to compound. Each compound was tested on 6 slices and results averaged. Drug preparation; compound was dissolved in 100% DMSO at a stock concentration of 30 mM, and diluted according to requirements, carbamoylcholine chloride (CCh) was purchased from Sigma (Cat#C4382) and dissolved at a stock concentration of 1 mM in ddH2O.

Experiment [3] has as its system scopolamine-induced amnesia. As to the kind of experiment: Passive avoidance, scopolamine-induced amnesia. The format is in vivo. Here is the method: Studies were carried out as described previously by Foley et al., (2004) Neuropsychopharmacology. In the passive avoidance task scopolamine administration (1 mg/kg, i.p.) at 6 hours following training rendered animals amnesic of the paradigm. A dose range of 3, 10, and 30 mg/kg (po) free base, administered 90 minutes prior to the training period via oral gavage, was examined.

Experiment [4] concerns the target T2, human muscarinic M1 receptor (Homo sapiens, UniProt P11229).
T2 construct: expressed in transfected cells
T2 sequence (P11229 1-460): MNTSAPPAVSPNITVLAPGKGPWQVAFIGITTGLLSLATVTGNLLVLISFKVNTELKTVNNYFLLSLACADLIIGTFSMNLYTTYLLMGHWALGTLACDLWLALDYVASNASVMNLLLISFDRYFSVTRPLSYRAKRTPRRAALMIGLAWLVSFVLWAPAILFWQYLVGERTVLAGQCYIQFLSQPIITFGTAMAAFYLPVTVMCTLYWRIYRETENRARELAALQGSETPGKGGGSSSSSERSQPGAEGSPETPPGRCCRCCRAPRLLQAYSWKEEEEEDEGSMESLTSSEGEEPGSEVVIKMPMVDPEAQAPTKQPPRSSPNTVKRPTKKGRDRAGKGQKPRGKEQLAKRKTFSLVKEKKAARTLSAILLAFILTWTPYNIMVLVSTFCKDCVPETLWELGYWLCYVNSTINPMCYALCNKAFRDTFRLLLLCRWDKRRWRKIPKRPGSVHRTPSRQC
In words: Alphascreen Surefire phospho-ERK1/2 functional assay, M1. The experiment is classed as cell-based. As to conditions: for EC50: CHO cells stably expressing human M1, phospho-ERK1/2, read-out: pEC50 M1 (converted); for Emax: CHO. As for the experimental part:
as §1, §2
On the technique in general: Alpha assays give light when donor and acceptor beads are brought close together.

For experiment [5], the target named is T3, human muscarinic M3 receptor (Homo sapiens, UniProt P20309).
T3 construct: expressed in transfected cells
As to the kind of experiment: Alphascreen Surefire phospho-ERK1/2 functional assay, M3. The experiment is classed as cell-based. As to conditions: for EC50: CHO cells stably expressing human M3, phospho-ERK1/2, read-out: pEC50 M3 (converted); for Emax: CHO, read-out: % Emax cf. ACh, M3. Here is the method:
as §1, §2

The target in experiment [6] is T4, human muscarinic M2 receptor (Homo sapiens, UniProt P08172).
T4 construct: expressed in transfected cells
T4 sequence (P08172 1-466): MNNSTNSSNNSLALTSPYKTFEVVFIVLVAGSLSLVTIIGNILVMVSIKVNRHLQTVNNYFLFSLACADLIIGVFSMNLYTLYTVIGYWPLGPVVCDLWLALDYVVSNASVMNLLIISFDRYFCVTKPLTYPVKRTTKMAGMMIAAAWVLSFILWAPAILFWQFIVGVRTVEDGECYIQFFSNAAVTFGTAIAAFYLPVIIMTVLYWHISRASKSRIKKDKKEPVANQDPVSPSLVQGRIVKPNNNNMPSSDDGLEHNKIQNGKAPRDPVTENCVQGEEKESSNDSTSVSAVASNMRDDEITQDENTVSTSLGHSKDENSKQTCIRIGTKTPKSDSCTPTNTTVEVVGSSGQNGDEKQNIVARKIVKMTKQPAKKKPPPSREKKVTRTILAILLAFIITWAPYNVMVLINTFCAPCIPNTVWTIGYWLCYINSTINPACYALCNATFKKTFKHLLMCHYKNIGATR
In words: Alphascreen Surefire phospho-ERK1/2 functional assay, M2. As to conditions: for EC50: CHO cells stably expressing human M2, phospho-ERK1/2, read-out: pEC50 M2 (converted); for Emax: CHO, read-out: % Emax cf. ACh, M2. The experiment is classed as cell-based. Here is the method:
as §1, §2

The mark [7] stands for this setting: read-out: % Emax cf. ACh, M4, CHO cells stably expressing human M4, relative to ACh.
Setting [8] is: read-out: % Emax cf. ACh, M1, CHO cells stably expressing human M1, relative to ACh.

T3 sequence (P20309 whole entry): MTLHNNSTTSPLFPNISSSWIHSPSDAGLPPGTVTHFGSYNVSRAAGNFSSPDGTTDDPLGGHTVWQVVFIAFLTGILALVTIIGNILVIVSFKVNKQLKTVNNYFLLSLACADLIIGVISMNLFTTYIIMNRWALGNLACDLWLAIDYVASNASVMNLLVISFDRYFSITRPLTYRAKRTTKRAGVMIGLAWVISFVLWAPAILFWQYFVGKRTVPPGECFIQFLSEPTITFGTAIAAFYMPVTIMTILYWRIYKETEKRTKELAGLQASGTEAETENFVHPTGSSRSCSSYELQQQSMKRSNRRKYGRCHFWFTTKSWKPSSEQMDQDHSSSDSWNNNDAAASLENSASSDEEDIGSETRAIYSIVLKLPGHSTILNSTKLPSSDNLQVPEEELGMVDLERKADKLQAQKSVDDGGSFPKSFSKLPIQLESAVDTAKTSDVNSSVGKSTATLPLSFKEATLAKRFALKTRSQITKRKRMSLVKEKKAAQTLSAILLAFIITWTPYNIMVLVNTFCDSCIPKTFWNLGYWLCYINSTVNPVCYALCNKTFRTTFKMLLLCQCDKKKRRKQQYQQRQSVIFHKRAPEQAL

As a reminder, the Emax is the greatest response seen or fitted, relative to the assay's reference. Usually ED50 stands for the dose at which the effect has come halfway, by size or by number of responders. As for `CCOC(=O)N1CCC2(CC(N3CCC(C(=O)NC4(C)CCC4)CC3)C2)C1` (single isomer, unassigned) [Example 9 - Isomer 2, ethyl 2-{4-[(1-methylcyclobutyl)carbamoyl]piperidin-1-yl}-6-azaspiro[3.4]octane-6-carboxylate], the EC50 in experiment [1] is 182 nM; in experiment [2], 5700 nM; in experiment [4], 36.3 nM; in experiment [5] it was greater than 20000 nM; in experiment [6], greater than 20000 nM. For the same molecule, the Emax came to 66% in experiment [1] (setting [7]), 100% in experiment [4] (setting [8]), 9% in experiment [5] and 15% in experiment [6]. Also, in experiment [3] (3, 10 and 30 mg/kg po), the “reversal of scopolamine-induced amnesia of the passive avoidance paradigm” value was “reverse scopolamine-induced amnesia of the paradigm in a dose-dependent manner”. Also, the median effective dose (ED50) in experiment [3] (po, 90 minutes prior to training, scopolamine 1 mg/kg i.p., read-out: approximate ED50, reversal of scopolamine-induced amnesia) was roughly 10 mg/kg.
Consider `CCOC(=O)N1CCC2(CC(N3CCC(C(=O)NC4(C)CCC4)CC3)C2)C1` (mixture of isomers) [Example 9 - mixture of diastereomers, ethyl 2-{4-[(1-methylcyclobutyl)carbamoyl]piperidin-1-yl}-6-azaspiro[3.4]octane-6-carboxylate], for which the EC50 in experiment [1] was 380 nM; in experiment [4] it was 51.3 nM; in experiment [5], greater than 20000 nM; in experiment [6], greater than 20000 nM. For the same molecule, the Emax in experiment [1] (read-out: % Emax cf. ACh, M4) was found to be 66%; in experiment [4] (read-out: % Emax cf. ACh, M1) it was 142%; in experiment [5], 5%; in experiment [6] it was 6%.
As for `C#CCOC(=O)N1CC2(CCC(N3CCC(C(=O)NC4(C)CCC4)CC3)C2)C1` (racemic) [Example 13 - racemic, prop-2-yn-1-yl 6-{4-[(1-methylcyclobutyl)carbamoyl]piperidin-1-yl}-2-azaspiro[3.4]octane-2-carboxylate], the EC50 is 52.5 nM in experiment [1], 15.8 nM in experiment [4], greater than 20000 nM in experiment [5] and greater than 20000 nM in experiment [6]. Further, the Emax in experiment [1] (read-out: % Emax cf. ACh, M4) amounted to 44%; in experiment [4] (read-out: % Emax cf. ACh, M1) it was 139%; in experiment [5], 39%; in experiment [6], 7%.
Regarding `[2H]C([2H])([2H])C1(NC(=O)C2CCN(C3CC4(CCN(C(=O)OCC)C4)C3)CC2)CCC1` (single isomer, unassigned) [Example 21 - Isomer 2, ethyl 2-(4-{[1-(1,1,1-trideuteromethyl)cyclobutyl]carbamoyl}piperidin-1-yl)-6-azaspiro[3.4]octane-6-carboxylate], the EC50 in experiment [1] is 170 nM; in experiment [4], 67.6 nM; in experiment [5] it was greater than 20000 nM; in experiment [6], greater than 20000 nM. The Emax in experiment [1] (read-out: % Emax cf. ACh, M4) was 111%; in experiment [4] (read-out: % Emax cf. ACh, M1), 107%; in experiment [5] it was 12%; in experiment [6], 9%.
Regarding `CC#CCOC(=O)N1C2CCC1CC(N1CCC(C(=O)NC3(C)CCC3)CC1)C2` (single isomer, unassigned) [Example 3 - Isomer 2, but-2-yn-1-yl 3-{4-[(1-methylcyclobutyl)carbamoyl]piperidin-1-yl}-8-azabicyclo[3.2.1]octane-8-carboxylate], the EC50 in experiment [1] was 851 nM; in experiment [4], 363 nM; in experiment [5], greater than 20000 nM; in experiment [6], greater than 20000 nM. Moreover, the Emax in experiment [1] (setting [7]) is 65%; in experiment [4] (setting [8]), 109%; in experiment [5], 2%; in experiment [6], 10%.
For the molecule `CCOC(=O)N1CC2CC(N3CCC(C(=O)NC4(C)CCC4)CC3)CC2C1` (mixture of isomers) [Example 8 - mixture of diastereomers, ethyl 5-{4-[(1-methylcyclobutyl)carbamoyl]piperidin-1-yl}hexahydrocyclopenta[c]pyrrole-2(1H)-carboxylate], the EC50 in experiment [1] was 1700 nM; in experiment [4], 110 nM; in experiment [5], greater than 20000 nM; in experiment [6], greater than 20000 nM. Further, the Emax in experiment [1] (read-out: % Emax cf. ACh, M4) is 29%; in experiment [4] (read-out: % Emax cf. ACh, M1), 118%; in experiment [5], 8%; in experiment [6] it was 5%.
Take `CCOC(=O)N1CC2CC(N3CCC(C(=O)NC4(C)CCC4)CC3)CC1C2` (mixture of isomers) [Example 7 - mixture of diastereomers, ethyl 3-{4-[(1-methylcyclobutyl)carbamoyl]piperidin-1-yl}-6-azabicyclo[3.2.1]octane-6-carboxylate]: the EC50 in experiment [1] is 447 nM; in experiment [4] it was 55 nM; in experiment [5], greater than 20000 nM; in experiment [6], greater than 20000 nM. In addition, the Emax in experiment [1] (read-out: % Emax cf. ACh, M4) was 81%; in experiment [4] (read-out: % Emax cf. ACh, M1) it was 127%; in experiment [5], 4%; in experiment [6], 10%.
As for `CC#CCOC(=O)N1CCC2(CC(N3CCC(C(=O)NC4(C)CCC4)CC3)C2)C1` (mixture of isomers) [Example 10 - mixture of diastereomers, but-2-yn-1-yl 2-{4-[(1-methylcyclobutyl)carbamoyl]piperidin-1-yl}-6-azaspiro[3.4]octane-6-carboxylate], the EC50 is 339 nM in experiment [1], 155 nM in experiment [4], greater than 20000 nM in experiment [5] and greater than 20000 nM in experiment [6]. In addition, the maximal effect (Emax) in experiment [1] (read-out: % Emax cf. ACh, M4) was determined as 42%; in experiment [4] (read-out: % Emax cf. ACh, M1) it was 93%; in experiment [5] it was 3%; in experiment [6], 10%.
